Assay results reported in US10085974B2, “Dosage and formulation” (Almirall, S.A., priority 2008, dated 2018).

Tests used:
[1] = system: Patients with moderate to severe stable COPD; assay: Tolerability (ECG, laboratory parameters, adverse events) in the 4-week COPD trial; format: in vivo, human; conditions: aclidinium 25-400 μg once daily, 4 weeks
Experimental: (§1) Methods: Patients with moderate to severe stable COPD were randomized to receive double-blind, once-daily treatment with aclidinium (25, 50, 100, 200, or 400 μg), placebo, or open-label tiotropium 18 μg for 4 weeks. Spirometric measurements were performed at 22-24 h after the first dose and then at weekly intervals, and from 0.5-6 h post-administration on Day 1 and at Week 4 (Day 29).

[2] = system: Patients with moderate to severe stable COPD; assay: Spirometric measurements (FEV1) in a 4-week randomized once-daily trial in COPD patients; format: in vivo, human; conditions: for Mean change from baseline in trough FEV1 on Day 29 (Mean Δ): COPD patients
Experimental: as §1

Compound | Effect on ECG, laboratory parameters or adverse events [1] | Tolerability [1] | Mean change from baseline in trough FEV1 on Day 29 (Mean Δ) ([2]; aclidinium 25 μg once daily, double-blind, 4 weeks, inhaled) | Mean change from baseline in trough FEV1 on Day 29 (Mean Δ) ([2]; aclidinium 50 μg once daily, double-blind, 4 weeks) | Mean change from baseline in trough FEV1 on Day 29 (Mean Δ) ([2]; aclidinium 100 μg once daily, double-blind, 4 weeks) | Mean change from baseline in trough FEV1 on Day 29 (Mean Δ) ([2]; aclidinium 200 μg once daily, double-blind, 4 weeks, *p <0.05 vs placebo) | Mean change from baseline in trough FEV1 on Day 29 (Mean Δ) ([2]; aclidinium 400 μg once daily, double-blind, 4 weeks, *p <0.05 vs placebo) | Effect on trough FEV1 on Day 29 ([2]; aclidinium 25-400 μg once daily, 4 weeks) | Bronchodilatory effect compared with open-label tiotropium 18 μg ([2]; aclidinium 200 and 400 μg) | Bronchodilatory effect during the first 6 h post-dose on Day 29 ([2]; all doses, compared with Day 1) | Duration of bronchodilation ([2]; once-daily aclidinium) | Time to peak FEV1 ([2]; post-dose, aclidinium 100-400 μg) | Mean change from baseline in trough FEV1 on Day 29 (Mean Δ) ([2]; tiotropium 18 μg once daily, open-label, 4 weeks, *p <0.05 vs placebo)
O=C(O[C@H]1C[N+]2(CCCOc3ccccc3)CCC1CC2)C(O)(c1cccs1)c1cccs1.[Br-] [Aclidinium, 3(R)-(2-hydroxy-2,2-dithien-2-ylacetoxy)-1-(3-phenoxypropyl)-1-azoniabicyclo[2.2.2]octane bromide] | no dose-dependent effect | well tolerated | 39 mL | 36 mL | 83 mL | 148* ml | 128* ml | dose-dependently increased | comparable bronchodilatory effects | comparable to that on Day 1 | sustained bronchodilation over 24 h | 3 h | 
C[N+]1(C)[C@@H]2C[C@@H](OC(=O)C(O)(c3cccs3)c3cccs3)C[C@H]1[C@@H]1O[C@@H]12 [Tiotropium, reference compound] |  |  |  |  |  |  |  |  |  |  |  |  | 161* ml
